Results as given in US7820692B2, “Tetrahydro isoquinoline derivatives, preparation methods and medicinal uses thereof” (China Pharmaceutical University, priority 2006, dated 2010).
“Also recorded” adds a separate entry of the source. Marks after values point to notes of the source that are not given here.

Tests used:
[1] = system: Kuming mice; assay: Mice hot plate method analgesic test; assay type: in vivo; conditions: for Analgesic experiment result, Mice hot plate method: subcutaneous injection, hot plate 55° C., value with range in brackets
Protocol: (§1) Analgesic efficacy of the subject compound is determined by using model derived from mice hot plate method and mice writhing method (Methodology of Pharmacological Experiment, edition II, Xu Shuyun, People Medical Publishing Company, 1991).
Experiment Animal: Kuming Mice (Female, 18-22 g)
(§2) • (1) Selection of normal mice: the test room temperature is controlled at about 22° C., temperature of the hot plate of an pain threshold dector is regulated to 55° C., the duration from the moment the mice is put on the hot plate to the moment the mice start to lick the hind paw is recorded as pain threshold value, the test is repeated twice at interval of 20 min, and the mice with average pain threshold value no more than 30 sec is qualified mice. • (2) Experimental mice: the qualified mice are randomly divided into groups each having 10 mice, and subjected to subcutaneous injection. • Each group is tested for mice pain response time once every 5, 15, 30, 50, and 60 minute after administration, and the medicine is believed to be effective which response time beyond 1 min. • Mice Writhing Assay • I-6 is administered via subcutaneous injection, then 0.6% acetic acid solution (10 ml/kg) is administered after 30 min, and the number of the mice writhing within 15 min is recorded. 3.

[2] = target: μ-opioid receptor (Homo sapiens, UniProt P35372); assay: Radioligand receptor binding assay, competition with [3H]diprenorphine, μ-receptor; conditions: for inhibition at 1 µM: read-out: inhibition rate of medicine at 1 × 10^−6 M (μ); for Ki: Ki=IC50/(1+[L]/Kd); for IC50: competition binding, μ-opioid receptor; for receptor selectivity μKi/κKi: ratio of μ Ki to κ Ki
Protocol: (§3) The experiment test tubes are divided into total binding tubes and non-specific binding tubes, and several groups of sample tubes added with competitive ligand in different concentrations are provided. The total binding tube is added with expressed membrane receptor protein equivalent to 20 μg and [^3H] diprenorphine (0.5 nM) (1.44 Pbq/mol broad spectrum opioid antagonist, Amersham), the corresponding non-specific binding tubes are further added with 1 μM Naloxone (broad spectrum opioid antagonist, Sigma), the sample tubes are added with different concentrations compounds which are to be screened, the final volume is regulated to 100 μl with 50 mM Tris(Amresco)-HCl (pH 7.4). Incubation is performed at 30° C. for 30 min, and the tubes are placed into ice water to stop reaction. Negative pressure filter is performed in Millipore sample collector via GF/(Whatman) glass fiber filter paper. Ice cold 50 mM Tris-HCl (pH 7.4) is used to wash the filter paper for three times, each for 4 ml; Dry the filter paper and place it in 0.5 ml Eppendorff tube, and add 0.5 ml of lipophilic scintillator liquid (Reagent No. 1 Factory Of Shanghai Chemical Reagent Co. Ltd). Beckman LS 6500 multifunctional liquid scintillation counter is adopted for measuring radiation intensity, calculating inhibition rate is calculated, each concentration has three duplicated tubes, and each tube is independently tested for 3-4 times.
(§4) IC50 value is calculated by software Prism 4.0.
(§5) Ki=IC50/(1+[L]/Kd), ([L] is the concentration of added marked ligand, and Kd is equilibrium dissociation constant of radioligand).

[3] = system: Kuming mice; assay: Mice writhing assay (acetic acid) analgesic test; assay type: in vivo; conditions: subcutaneous injection, 0.6% acetic acid after 30 min, writhing within 15 min
Protocol: as §1, §2

[4] = target: κ-opioid receptor (Homo sapiens, UniProt P41145); assay: Radioligand receptor binding assay, competition with [3H]diprenorphine, κ-receptor; conditions: for Ki: Ki=IC50/(1+[L]/Kd); for dpm: competition binding with κ-receptor, [3H]diprenorphine 0.5 nM; for dpm / inhibition at 10 µM / inhibition rate %: compound at 1 × 10^−5 M; for IC50: competition binding, κ-opioid receptor; for inhibition at 10 µM: read-out: inhibition rate %
Protocol: as §3, §4, §5

[5] = system: Kuming mice; assay: Analgesic tolerance test (hot plate, 9 days administration); assay type: in vivo; conditions: morphine 7 mg/kg subcutaneous injection
Protocol: Kuming mice (18-20 g, male) are selected for test, and divided into physiological saline group, morphine group, and I-6 group.
physiological saline group: subcutaneous administration, 0.2 mL for each mice.
Morphine group: Day 1-3, subcutaneous injection, 7 mg/kg • Day 4-7, subcutaneous injection, 10 mg/kg • Day 8-9, subcutaneous injection, 15 mg/kg I-6 group: Day 1-9, subcutaneous injection, 25 μg/kg
Hot plate method in mice is adopted as model, administration lasts for 9 days, analgesic effects before and after administration are determined every day, and if analgesic effect is attenuated after continuous administration of 3 days, the drug concentration will be increased, and if analgesic effect don't change, the drug concentration will not be changed.

[6] = 1 × 10^−6 M, printed in the IC50 (M) μ column

SMILES: O=C1CC(C(=O)N2CCc3ccccc3C2CN2CCCC2)c2ccccc21 (centres unmarked) [I-1, 1-(pyrrolidine-1-methyl)-2-(2,3-dihydro-inden-3-keto-1-carbonyl)-1,2,3,4-tetrahydroisoquinoline]
- analgesic efficacy compared with morphine ([1]; mice hot plate method and mice writhing method): powerful analgesic efficacy
- Analgesic experiment result, Mice hot plate method [1]: 44.147(25.134-77.545) ug/kg
- inhibition at 1 µM [2, 6]: 18.7%
- Analgesic experiment result, Mice writhing assay [3]: 26.303(16.807-41.165) ug/kg
- Ki [4]: 0.438 nM
- dpm [4]: 212.91 dpm
- IC50 [4]: 1.53 nM
- inhibition at 10 µM [4]: 100%

SMILES: COc1cc2c(cc1OC)C(C(=O)N1CCc3ccccc3C1CN1CCCC1)CC2=O (centres unmarked) [I-5, 1-(pyrrolidine-1-methyl)-2-(5,6-dimethoxy-2,3-dihydro-inden-3-keto-1-carbonyl)-1,2,3,4-tetrahydroisoquinoline]
- Ki [2]: 106 nM
- IC50 [2]: 318 nM
- receptor selectivity μKi/κKi [2]: 79
- Ki [4]: 1.34 nM
- dpm [4]: 260.58 dpm
- IC50 [4]: 4.69 nM
- inhibition at 10 µM [4]: 99.5%

SMILES: COc1ccc2c(c1)C(C(=O)N1CCc3ccccc3C1CN1CCCC1)CC2=O (centres unmarked) [I-13, 1-(pyrrolidine-1-methyl)-2-(6-methoxy-2,3-dihydro-inden-3-keto-1-carbonyl)-1,2,3,4-tetrahydroisoquinoline]
- Ki [2]: 133 nM
- IC50 [2]: 399 nM
- receptor selectivity μKi/κKi [2]: 146
- Ki [4]: 0.909 nM
- dpm [4]: 211.54 dpm
- IC50 [4]: 3.18 nM
- inhibition at 10 µM [4]: 100%

SMILES: COc1ccc2c(c1)C(CN1CCCC1)N(C(=O)C1CC(=O)c3ccccc31)CC2 (centres unmarked) [I-14, 7-methoxy-1-(pyrrolidine-1-methyl)-2-(2,3-dihydro-inden-3-keto-1-carbonyl)-1,2,3,4-tetrahydroisoquinoline]
- inhibition at 1 µM [2, 6]: 14.6%
- Ki [4]: 270 nM
- dpm [4]: 972.69 dpm
- IC50 [4]: 912 nM
- inhibition at 10 µM [4]: 77.3%

SMILES: COc1ccc2c(c1)C(CN1CCCC1)N(C(=O)C1CC(=O)c3cc(OC)c(OC)cc31)CC2 (centres unmarked) [I-15, 7-methoxy-1-(pyrrolidine-1-methyl)-2-(5,6-dimethoxy-2,3-dihydro-inden-3-keto-1-carbonyl)-1,2,3,4-tetrahydroisoquinoline]
- inhibition rate of medicine at 1 × 10^−6 M (μ) [2, 6]: 11.7% (^−6)^a
- dpm [4]: 820.16 dpm
- inhibition rate % [4]: 82.3%

SMILES: COc1ccc2c(c1)C(CN1CCCC1)N(C(=O)C1CC(=O)c3ccc(Cl)cc31)CC2 (centres unmarked) [I-18, 7-methoxy-1-(pyrrolidine-1-methyl)-2-(6-chloro-2,3-dihydro-inden-3-keto-1-carbonyl)-1,2,3,4-tetrahydroisoquinoline]
- inhibition at 1 µM [2, 6]: 14%
- melting point: 151 to 153 °C
- Ki [4]: 17.1 nM
- dpm [4]: 281.00 dpm
- IC50 [4]: 59.9 nM
- inhibition at 10 µM [4]: 100%

SMILES: COc1ccc2c(c1)C(C(=O)N1CCc3ccc(OC)cc3C1CN1CCCC1)CC2=O (centres unmarked) [I-19, 7-methoxy-1-(pyrrolidine-1-methyl)-2-(6-methoxy-2,3-dihydro-inden-3-keto-1-carbonyl)-1,2,3,4-tetrahydroisoquinoline]
- dpm [4]: 799.91 dpm
- inhibition rate % [4]: 82.9%

SMILES: COc1cc2c(cc1OC)C(CN1CCCC1)N(C(=O)C1CC(=O)c3ccccc31)CC2 (centres unmarked) [I-26, 6,7-dimethoxy-1-(pyrrolidine-1-methyl)-2-(2,3-dihydro-inden-3-keto-1-carbonyl)-1,2,3,4-tetrahydroisoquinoline]
- dpm [4]: 1883.77 dpm
- inhibition rate % [4]: 51.9%

SMILES: COc1cc2c(cc1OC)C(CN1CCCC1)N(C(=O)C1CC(=O)c3cc(OC)c(OC)cc31)CC2 (centres unmarked) [I-27, 6,7-dimethoxy-1-(pyrrolidine-1-methyl)-2-(5,6-dimethoxy-2,3-dihydro-inden-3-keto-1-carbonyl)-1,2,3,4-tetrahydroisoquinoline]
- dpm [4]: 5257.44 dpm
- inhibition rate % [4]: 0%

SMILES: COc1cc2c(cc1OC)C(CN1CCCC1)N(C(=O)C1CC(=O)c3ccc(Cl)cc31)CC2 (centres unmarked) [I-30, 6,7-dimethoxy-1-(pyrrolidine-1-methyl)-2-(6-chloro-2,3-dihydro-inden-3-keto-1-carbonyl)-1,2,3,4-tetrahydroisoquinoline]
- dpm [4]: 2269.71 dpm
- inhibition rate % [4]: 40.6%

SMILES: COc1ccc2c(c1)C(C(=O)N1CCc3cc(OC)c(OC)cc3C1CN1CCCC1)CC2=O (centres unmarked) [I-31, 6,7-dimethoxy-1-(pyrrolidine-1-methyl)-2-(6-methoxy-2,3-dihydro-inden-3-keto-1-carbonyl)-1,2,3,4-tetrahydroisoquinoline]
- dpm [4]: 3271.85 dpm
- inhibition rate % [4]: 11.2%

SMILES: CN1CC[C@]23c4c5ccc(O)c4O[C@H]2[C@@H](O)C=C[C@H]3[C@H]1C5 [Morphine, morphine]
- Analgesic experiment result, Mice hot plate method [1]: 6.949(5.682-8.500) mg/kg
- analgesic effect on continuous administration ([5]; Day 3): no significant analgesic effect; also recorded: tolerance and efficacy of zero
- analgesic effect on continuous administration ([5]; from Day 2): attenuated analgesic effect from Day 2
- Analgesic experiment result, Mice writhing assay [3]: 0.840(0.558-1.265) mg/kg
